{"source": "patent US11046704B2", "about": "“Derivatives of porphyrins, their process of preparation and their use for treating viral infections” (INSTITUT NATIONAL DE LA SANTE ET DE LA RECHERCHE MEDICALE …, priority 2015, dated 2021)", "test_system": "HIV-1", "assay": "Viral infectivity test on HeLa P4 cells", "format": "cell-based", "method": "FIG. 2: Effects of G4 ligands compared with AZT on HIV-1 infectivity using the HeLa P4 cell system for studying the replication of HIV-1. The HeLa P4 cells contain a gene lacZ encoding beta-galactosidase under the control of the viral LTR and whose transcription is activated by the viral protein Tat. The cells are incubated with the ligand then infected with HIV-1. After 24 hours the activity of beta-galactosidase, which is proportional to the infectivity of the virus is then measured on a fluorescence plate reader.\nC. Cell lines and viruses: HeLa P4 cells encoding a Tat-inducible β-galactosidase were maintained in DMEM medium (Invitrogen) supplemented with 10% inactivated FCS, 1 mg/ml geneticin (G418, Gibco-BRL), gentamycin. MT4 and H9LaI cells were grown in RPMI 1640 glutamax medium (Invitrogen) supplemented with 10% inactivated FCS. HIV-1 viruses were obtained after 48 h co-culture of MT4 cells (0.5×10^6/ml) and H9Laï cells (1×10^6/ml), chronically infected by HIV-1LaI isolate, in RPMI 1640 glutamax medium supplemented with 10% inactivated FCS, at 37° C. under humidified atmosphere and […]. […]\nD. Viral infectivity test: The G4 ligands are incubated in presence of the HelaP4 cells 20 minutes before infection. […] After 24 h, the reaction was measured in a fluorescence microplate reader (Cytofluor II, Applied Biosystems) at 360/460 nm Ex/Em."}
{"compound": "C[n+]1ccc(-c2c3nc(c(-c4cc[n+](C)cc4)c4ccc([nH]4)c(-c4cc[n+](C)cc4)c4ccc([nH]4)c(-c4cc[n+](C)cc4)c4nc2C=C4)C=C3)cc1", "note": "[Tmpyp4]", "values": [{"measurement": "inhibition of viral replication", "value": "weak inhibitors of viral replication"}]}
{"compound": "Cc1cn([C@H]2C[C@H](N=[N+]=[N-])[C@@H](CO)O2)c(=O)[nH]c1=O", "note": "[AZT]", "values": [{"measurement": "IC50", "setting": "24 h of infection, beta-galactosidase readout", "value": 40, "unit": "nM"}]}
